Assay results from US9433622B2, “Pyrimidine compounds useful in the treatment of diseases mediated by IKKE and/or TBK1 mechanisms” (DOMAINEX LIMITED, priority 2013, dated 2016).

Key:
[1] = molecular target: TBK1 (Homo sapiens (Human), UniProt Q9UHD2); assay: Lanthascreen TR-FRET kinase inhibition assay, TBK1; format: biochemical; conditions: 20 μM ATP (apparent Km), 8 nM kinase, 2.5 h
In short: (§1)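 TR-FRET: terbium phosphospecific antibody detects phosphorylation of 400 nM fluorescein-IkBα peptide, 20 μM ATP, 20 °C, HEPES pH 7.5 with 3% DMSO. IKKε at 2 nM, 1 h reaction; TBK1 at 8 nM, 2.5 h reaction; started by kinase addition.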

[2] = molecular target: IKKε (Homo sapiens (Human), UniProt Q14164); assay: Lanthascreen TR-FRET kinase inhibition assay, IKKε; format: biochemical; conditions: 20 μM ATP (apparent Km), 2 nM kinase, 1 h
Sequence of IKKε (Q14164 whole entry): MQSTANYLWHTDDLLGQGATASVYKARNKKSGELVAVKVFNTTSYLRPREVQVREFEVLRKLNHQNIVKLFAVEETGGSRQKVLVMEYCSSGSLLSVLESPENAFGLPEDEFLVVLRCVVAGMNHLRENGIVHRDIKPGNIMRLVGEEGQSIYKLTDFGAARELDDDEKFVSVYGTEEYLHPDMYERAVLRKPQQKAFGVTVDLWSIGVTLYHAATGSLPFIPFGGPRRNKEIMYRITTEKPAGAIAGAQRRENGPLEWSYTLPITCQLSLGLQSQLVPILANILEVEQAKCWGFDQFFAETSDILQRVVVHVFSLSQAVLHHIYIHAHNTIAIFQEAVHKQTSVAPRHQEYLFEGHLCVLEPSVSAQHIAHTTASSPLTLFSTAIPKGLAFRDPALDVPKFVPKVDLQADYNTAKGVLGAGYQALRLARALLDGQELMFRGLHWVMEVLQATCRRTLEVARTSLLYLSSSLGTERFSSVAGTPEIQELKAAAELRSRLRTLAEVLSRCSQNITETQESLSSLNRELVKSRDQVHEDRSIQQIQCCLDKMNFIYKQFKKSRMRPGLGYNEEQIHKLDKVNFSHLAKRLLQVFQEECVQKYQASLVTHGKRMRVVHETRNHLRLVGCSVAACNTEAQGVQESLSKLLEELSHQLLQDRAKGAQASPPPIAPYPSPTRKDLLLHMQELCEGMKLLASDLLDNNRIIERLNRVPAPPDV
In short: as §1

Sequence of TBK1 (Q9UHD2 whole entry): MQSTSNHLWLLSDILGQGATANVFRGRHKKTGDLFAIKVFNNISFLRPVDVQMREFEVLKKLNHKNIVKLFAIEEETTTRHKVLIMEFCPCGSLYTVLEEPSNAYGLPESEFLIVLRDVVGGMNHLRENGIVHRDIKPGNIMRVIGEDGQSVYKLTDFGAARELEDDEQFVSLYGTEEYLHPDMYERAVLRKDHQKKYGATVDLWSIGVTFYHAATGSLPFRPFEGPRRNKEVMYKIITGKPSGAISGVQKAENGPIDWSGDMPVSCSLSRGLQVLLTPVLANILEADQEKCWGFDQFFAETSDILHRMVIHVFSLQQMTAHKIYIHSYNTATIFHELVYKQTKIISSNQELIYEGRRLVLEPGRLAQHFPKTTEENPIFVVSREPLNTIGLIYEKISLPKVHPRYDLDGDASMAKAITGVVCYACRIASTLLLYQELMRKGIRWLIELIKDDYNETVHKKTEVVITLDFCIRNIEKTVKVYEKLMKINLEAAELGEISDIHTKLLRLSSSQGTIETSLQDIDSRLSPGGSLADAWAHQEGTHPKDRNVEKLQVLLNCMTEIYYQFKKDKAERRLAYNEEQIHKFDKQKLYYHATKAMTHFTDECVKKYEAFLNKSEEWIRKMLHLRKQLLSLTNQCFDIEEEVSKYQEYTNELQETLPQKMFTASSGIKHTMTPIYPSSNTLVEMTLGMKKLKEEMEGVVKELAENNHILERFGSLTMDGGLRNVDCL

IC50 [1] [nM]	IC50 [2] [nM]	Compound
< 100	< 100	N#Cc1cc(-c2ccnc(Nc3ccc(CN4CCCOCC4)nc3)n2)cnc1N1CC[C@H](F)C1 [DMX-103, 2-((S)-3-Fluoro-pyrrolidin-1-yl)-5-[2-(6-[1,4]oxazepan-4-ylmethyl-pyridin-3-ylamino)-pyrimidin-4-yl]-nicotinonitrile]
< 30	< 15	N#Cc1cc(-c2ccnc(Nc3ccc(NC(=O)CN4CCOCC4)nc3)n2)cnc1N1CC[C@@H](F)C1 [DMX-112, N-(5-{4-[5-Cyano-6-((R)-3-fluoro-pyrrolidin-1-yl)-pyridin-3-yl]-pyrimidin-2-ylamino}-pyridin-2-yl)-2-morpholin-4-yl-acetamide]
< 100	< 1000	N#Cc1cc(-c2ccnc(Nc3ccc(CN4CCOCC4)nc3)n2)cnc1NC1CC1 [DMX-122, 2-Cyclopropylamino-5-[2-(6-morpholin-4-ylmethyl-pyridin-3-ylamino)-pyrimidin-4-yl]-nicotinonitrile]
< 100	< 1000	N#Cc1cc(-c2nc(Nc3ccc(CN4CCOCC4)nc3)ncc2F)cnc1NC1CC1 [DMX-123, 2-Cyclopropylamino-5-[5-fluoro-2-(6-morpholin-4-ylmethyl-pyridin-3-ylamino)-pyrimidin-4-yl]-nicotinonitrile]
< 1000	< 1000	CC(=O)NCC1CCCN1c1ncc(-c2ccnc(Nc3ccc(CN4CCOCC4)nc3)n2)cc1C#N (stereo not drawn) [DMX-130, N-(1-{3-Cyano-5-[2-(6-morpholin-4-ylmethyl-pyridin-3-ylamino)-pyrimidin-4-yl]-pyridin-2-yl}-pyrrolidin-2-ylmethyl)-acetamide]
< 30	< 30	N#Cc1cc(-c2ccnc(Nc3ccc(CN4CCOCC4)nc3)n2)cnc1N1CCCC1CC(N)=O (stereo not drawn) [DMX-131, 2-(1-{3-Cyano-5-[2-(6-morpholin-4-ylmethyl-pyridin-3-ylamino)-pyrimidin-4-yl]-pyridin-2-yl}-pyrrolidin-2-yl)-acetamide]
< 1000	< 1000	N#Cc1cc(-c2ccnc(Nc3ccc(CN4CCOCC4)nc3)n2)cnc1N1CCNC(=O)CC1 [DMX-133, 5-[2-(6-Morpholin-4-yImethyl-pyridin-3-ylamino)-pyrimidin-4-yl]-2-(5-oxo-[1,4]diazepan-1-yl)-nicotinonitrile]
< 100	< 100	CC(Nc1ncc(-c2ccnc(Nc3ccc(CN4CCOCC4)nc3)n2)cc1C#N)C(N)=O (stereo not drawn) [DMX-134, 2-{3-Cyano-5-[2-(6-morpholin-4-ylmethyl-pyridin-3-ylamino)-pyrimidin-4-yl]-pyridin-2-ylamino}-propionamide]
< 100	< 100	CC(C(N)=O)N(C)c1ncc(-c2ccnc(Nc3ccc(CN4CCOCC4)nc3)n2)cc1C#N (stereo not drawn) [DMX-135, 2-({3-Cyano-5-[2-(6-morpholin-4-ylmethyl-pyridin-3-ylamino)-pyrimidin-4-yl]-pyridin-2-yl}-methyl-amino)-propionamide]
< 15	< 15	CC(C)C(Nc1ncc(-c2ccnc(Nc3ccc(CN4CCOCC4)nc3)n2)cc1C#N)C(N)=O (stereo not drawn) [DMX-136, 2-{3-Cyano-5-[2-(6-morpholin-4-ylmethyl-pyridin-3-ylamino)-pyrimidin-4-yl]-pyridin-2-ylamino}-3-methyl-butyramide]

Further lines, the molecule ahead of its results:

Compound	IC50 [1] [nM]	IC50 [2] [nM]
N#Cc1cc(-c2ccnc(Nc3ccc(CN4CCNC(=O)C4)nc3)n2)cnc1N1CC[C@H](F)C1 [DMX-102, 2-((S)-3-Fluoro-pyrrolidin-1-yl)-5-{2-[6-(3-oxo-piperazin-1-ylmethyl)-pyridin-3-ylamino]-pyrimidin-4-yl}-nicotinonitrile]	< 15	< 15
CN(CCO)Cc1ccc(Nc2nccc(-c3cnc(N4CC[C@H](F)C4)c(C#N)c3)n2)cn1 [DMX-104, 2-((S)-3-Fluoro-pyrrolidin-1-yl)-5-[2-(6-{[(2-hydroxy-ethyl)-methyl-amino]-methyl}-pyridin-3-ylamino)-pyrimidin-4-yl]-nicotinonitrile]	< 100	< 100
COCCNCc1cncc(Nc2nccc(-c3cnc(N4CC[C@H](F)C4)c(C#N)c3)n2)c1 [DMX-106, 2-((S)-3-Fluoro-pyrrolidin-1-yl)-5-(2-{5-[(2-methoxy-ethylamino)-methyl]-pyridin-3-ylamino}-pyrimidin-4-yl)-nicotinonitrile]	< 100	< 100
N#Cc1cc(-c2ccnc(Nc3cncc(NC(=O)CN4CCOCC4)c3)n2)cnc1N1CC[C@H](F)C1 [DMX-108, N-(5-{4-[5-Cyano-6-((S)-3-fluoro-pyrrolidin-1-yl)-pyridin-3-yl]-pyrimidin-2-ylamino}-pyridin-3-yl)-2-morpholin-4-yl-acetamide]	< 30	< 100
N#Cc1cc(-c2ccnc(Nc3cnc4c(c3)CNC4)n2)cnc1N1CC[C@H](F)C1 [DMX-109, 5-[2-(6,7-Dihydro-5H-pyrrolo[3,4-b]pyridin-3-ylamino)-pyrimidin-4-yl]-2-((S)-3-fluoro-pyrrolidin-1-yl)-nicotinonitrile]	< 100	< 30
CC1(O)CN(Cc2ccc(Nc3nccc(-c4cnc(N5CC[C@H](F)C5)c(C#N)c4)n3)cn2)C1 [DMX-110, 2-((S)-3-Fluoro-pyrrolidin-1-yl)-5-{2-[6-(3-hydroxy-3-methyl-azetidin-1-ylmethyl)-pyridin-3-ylamino]-pyrimidin-4-yl}-nicotinonitrile]	< 100	< 30
N#Cc1cc(-c2ccnc(Nc3ccnc(NC(=O)CN4CCOCC4)c3)n2)cnc1N1CC[C@@H](F)C1 [DMX-111, N-(4-{4-[5-Cyano-6-((R)-3-fluoro-pyrrolidin-1-yl)-pyridin-3-yl]-pyrimidin-2-ylamino}-pyridin-2-yl)-2-morpholin-4-yl-acetamide]	< 15	< 30
CC(=O)Nc1ccc(Nc2nccc(-c3cnc(N[C@@H]4CCOC4)c(C#N)c3)n2)cn1 [DMX-113, N-[5-(4-{5-Cyano-6-[(R)-(tetrahydro-furan-3-yl)amino]-pyridin-3-yl}-pyrimidin-2-ylamino)-pyridin-2-yl]-acetamide]	< 1000	< 1000
CN1CCC(Nc2ccc(Nc3nccc(-c4cnc(N[C@@H]5CCOC5)c(C#N)c4)n3)cn2)CC1 [DMX-114, 5-{2-[6-(1-Methyl-piperidin-4-ylamino)-pyridin-3-ylamino]-pyrimidin-4-yl}-2-[(R)-(tetrahydro-furan-3-yl)amino]-nicotinonitrile]	< 100	< 100
CN1CCC(NC(=O)c2cccc(Nc3nccc(-c4cnc(N[C@@H]5CCOC5)c(C#N)c4)n3)c2)CC1 [DMX-115, 3-(4-{5-Cyano-6-[(R)-(tetrahydro-furan-3-yl)amino]-pyridin-3-yl}-pyrimidin-2-ylamino)-N-(1-methyl-piperidin-4-yl)-benzamide]	< 1000	< 1000
Cn1cc(Nc2nccc(-c3cnc(N[C@@H]4CCOC4)c(C#N)c3)n2)cn1 [DMX-116, 5-[2-(1-Methyl-1H-pyrazol-4-ylamino)-pyrimidin-4-yl]-2-[(R)-(tetrahydro-furan-3-yl)amino]-nicotinonitrile]	< 1000	< 1000
N#Cc1cc(-c2ccnc(Nc3cccc(C(=O)NC4CCNCC4)c3)n2)cnc1N[C@@H]1CCOC1 [DMX-117, 3-(4-{5-Cyano-6-[(R)-(tetrahydro-furan-3-yl)amino]-pyridin-3-yl}-pyrimidin-2-ylamino)-N-piperidin-4-yl-benzamide]	< 1000	< 1000
COCCNc1ncc(-c2ccnc(Nc3ccc(NC4CCN(C)CC4)nc3)n2)cc1C#N [DMX-118, 2-(2-Methoxy-ethylamino)-5-{2-[6-(1-methyl-piperidin-4-ylamino)-pyridin-3-ylamino]-pyrimidin-4-yl}-nicotinonitrile]	< 1000	< 1000
CNc1ncc(-c2ccnc(Nc3ccc(NC4CCN(C)CC4)nc3)n2)cc1C#N [DMX-119, 2-Methylamino-5-{2-[6-(1-methyl-piperidin-4-ylamino)-pyridin-3-ylamino]-pyrimidin-4-yl}-nicotinonitrile]	< 100	< 1000
CN1CCC(Nc2ccc(Nc3nccc(-c4cnc(NCCO)c(C#N)c4)n3)cn2)CC1 [DMX-120, 2-(2-Hydroxy-ethylamino)-5-{2-[6-(1-methyl-piperidin-4-ylamino)-pyridin-3-ylamino]-pyrimidin-4-yl}-nicotinonitrile]	< 100	< 1000
N#Cc1cc(-c2nc(Nc3ccnc(NC(=O)CN4CCOCC4)c3)ncc2F)cnc1NC1CC1 [DMX-124, N-{4-[4-(5-Cyano-6-cyclopropylamino-pyridin-3-yl)-5-fluoro-pyrimidin-2-ylamino]-pyridin-2-yl}-2-morpholin-4-yl-acetamide]	< 100	< 1000
COCCNc1cc(Nc2ncc(F)c(-c3cnc(NC4CC4)c(C#N)c3)n2)ccn1 [DMX-125, 2-Cyclopropylamino-5-{5-fluoro-2-[2-(2-methoxy-ethylamino)-pyridin-4-ylamino]-pyrimidin-4-yl}-nicotinonitrile]	< 100	< 1000
N#Cc1cc(-c2ccnc(Nc3ccc4c(c3)CNC4)n2)cnc1N1CC[C@H](F)C1 [DMX-126, 5-[2-(2,3-Dihydro-1H-isoindol-5-ylamino)-pyrimidin-4-yl]-2-((S)-3-fluoro-pyrrolidin-1-yl)-nicotinonitrile]	< 15	< 15
COCCN1Cc2ccc(Nc3nccc(-c4cnc(N5CC[C@H](F)C5)c(C#N)c4)n3)cc2C1 [DMX-127, 2-((S)-3-Fluoro-pyrrolidin-1-yl)-5-{2-[2-(2-methoxy-ethyl)-2,3-dihydro-1H-isoindol-5-ylamino]-pyrimidin-4-yl}-nicotinonitrile]	< 15	< 15
Cc1nccn1CC(=O)Nc1ccc(Nc2nccc(-c3cnc(N4CC[C@H](F)C4)c(C#N)c3)n2)cn1 [DMX-128, N-(5-{4-[5-Cyano-6-((S)-3-fluoro-pyrrolidin-1-yl)-pyridin-3-yl]-pyrimidin-2-ylamino)-pyridin-2-yl)-2-(2-methyl-imidazol-1-yl)-acetamide]	< 30	< 30
